Measured values reported in US20250109139A1, “TRICYCLIC COMPOUND, AND PREPARATION METHOD THEREFOR AND USE THEREOF” (SHANGHAITECH UNIVERSITY, priority 2022, published 2025).

Columns and labels:
5-HT2A receptors = 5-HT2A receptors (Homo sapiens (Human), UniProt P28223); test: 5-HT2A receptor radioligand competition binding assay ([3H]-ketanserin); details: for Ki: read-out: Ki
Method: The affinity of the compounds of the present disclosure for 5-HT2A receptors was determined by a radioligand competition binding assay. In the first step, a cell membrane component containing specific 5-HT2A receptor was prepared. A 10 cm dish was used for transfection with […] of 5-HT2A receptors and 40 μL of PEI. After 48 hours, the 10 cm dish was taken out from the cell incubator and the cultured cells had expressed the 5-HT2A receptors. A vacuum pump was used to suck off the culture medium, 3 mL of lysis buffer was added to each culture dish, and the cells were placed in a 4° C. cold room for 10 minutes. After the cells were detached, the cells were transferred to a 15 mL centrifuge tube and centrifuged at 1500 rpm for 5 minutes at 4° C., and the supernatant was discarded. The cell pellet was transferred to a tissue homogenizer, and 3 mL of lysis buffer was added and fully ground until the cells were broken. Then, cell suspension was equally aliquoted into several EP tubes, centrifuged at 12000 rpm for 5 minutes at 4° C., and the supernatant was discarded. The precipitate was the cell membrane component containing the 5-HT2A receptors. […] First, a standard binding buffer was added to the cell membrane component containing the 5-HT2A receptors, and the cell membrane was disrupted and resuspended with an electric tissue homogenizer. 30 μL of membrane protein suspension was added to each well of a 96-well plate. Then, 30 μL of different drugs were added to the 96-well plate sequentially from bottom to top to ensure that the final drug concentrations were 10^−5 M, 10^−6 M, 10^−7 M, 10^−8 M, 10^−9 M, and 0 M, with two replicates per treatment. Next, 30 μL of [^3H]-ketanserin was added to each well of the 96-well plate. The plate was incubated at room temperature in the dark for 2 hours. Detection was conducted. The machine readout value reflected the amount of [^3H]-ketanserin bound on the membrane, and after further data processing, the affinity Ki values of different compounds for the 5-HT2A receptors were obtained.

[1] = tested on: MK801-induced hyperlocomotion in mice; test: Open field test, MK801-induced hyperlocomotion (schizophrenia-like model); format: in vivo, C57B6 male mice
Method: Experimental method: The experimental animals were C57B6 male mice, n=8 in each group. In this model, C57B6 mice were used as experimental animals. Hyperlocomotion of the mice in open field was induced by acute injection of a NMDA antagonist MK801, and modeled to test the inhibitory effect of different compounds on hyperlocomotion phenotype induced by MK801 All mouse behavior experiments were carried out during the light period. The whole process was recorded by the camera, and locomotive data were tracked and analyzed by behavioral tracking software. The compounds were administered intraperitoneally. Immediately after the injection, the mice entered the open field and their movement trajectories were recorded by the camera. After 30 minutes, the mice received 0.2 mg/kg of MK801 by intraperitoneal injection and returned to the open field immediately after administration, and the movement trajectories were further recorded for 120 minutes. The accumulative travelled distance of the mice was counted in a 5-minute bin. Data statistics were performed using Student-t-test analysis, *p<0.05, **p<0.01, ***p<0.001, ****p<0.0001. The total travelled distance of the mice in the 0-45 minute interval after administration of the compounds of the present disclosure at different doses in combination with MK801 (0.2 mg/kg) is shown in Table 10.

dopamine D2 receptors [2] = target: T1, dopamine D2 receptors (Homo sapiens (Human), UniProt P14416); test: Dopamine D2 receptor radioligand competition binding assay ([3H]-Methylspiperone); details: [3H]-Methylspiperone 0.3 to 0.5 nM, 293T membranes; read-out: Affinity Ki
In short: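 Membranes from cells transfected with human D2 receptor, PEI-mediated; competition with [3H]-methylspiperone for 2 h at room temperature in the dark.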

dopamine D2 receptors [3] = target: T1, dopamine D2 receptors; test: Dopamine D2 receptor Gαi1 BRET (G protein trimer dissociation); format: cell-based; details: for Emax: relative to endogenous ligand dopamine, read-out: Gαi1 BRET Emax % ± SEM; for EC50: unit printed only in Cariprazine cell, read-out: Gαi1 BRET EC50
In short: (§1)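 G-protein assay: cells co-transfected with D2 receptor, Gαi1-Rluc, Gβ3 and Gγ9-GFP (1 μg each); β-arrestin2 assay: D2-Rluc, GRK2 and GFP2-β-arrestin2 co-transfected. Cells were reseeded after one day and tested on day three. Drug dilution series were added in duplicate with coelenterazine 400a (5 μM final), and the BRET signal was read.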

dopamine D2 receptors [4] = target: T1, dopamine D2 receptors; test: Dopamine D2 receptor β-arrestin2 BRET (recruitment); format: cell-based; details: for Emax: relative to endogenous ligand dopamine, read-out: β-arrestin2 BRET Emax % ± SEM; for EC50: unit printed only in Cariprazine cell, read-out: β-arrestin2 BRET EC50
In short: as §1

[5] = target: T2, 5-hydroxytryptamine 1A (5-HT1A) receptors (Homo sapiens (Human), UniProt P08908); test: 5-HT1A receptor Gαi1 BRET (G protein trimer dissociation); format: cell-based; details: relative to endogenous ligand 5-hydroxytryptamine
[6] = target: T2, 5-hydroxytryptamine 1A (5-HT1A) receptors; test: 5-HT1A receptor β-arrestin2 BRET (recruitment); format: cell-based; details: for Emax: relative to endogenous ligand 5-hydroxytryptamine
Method: At the same time, in order to examine the downstream β-arrestin2 signaling pathway mediated by 5-HT1A receptors, on the first day, a 6 cm culture dish was used for transfection with 500 ng of 5-HT1A receptors containing C-terminal seaweed luciferase (5HT1AR-Rluc), 500 ng of G protein-coupled receptor kinase 2 (GRK2), 2500 ng of β-arrestin2 containing N-terminal green fluorescent protein (GFP2-ARRB2), and 14 μL of PEI. The next day, the confluent cells of a 6 cm culture dish were digested and reseeded into a 96-well plate with 100 μL of culture medium added to each well. On the third day, the drugs were added for test. The 96-well plate was taken out from the cell incubator to decant the culture medium, 40 µL of the substrate coelenterazine 400a (final concentration of 5 μM) was added to each well, and then 20 μL of different drugs were added sequentially from left to right to ensure that the final concentration of the drug decreased gradually from bottom to top, with two replicates per treatment. Finally, the prepared samples were loaded on machine for test. The machine readout value reflected the recruitment of β-arrestin2 to the membrane or the dissociation of G protein trimer. The former indicated the degree of activation of the β-arrestin2 signaling pathway downstream of the 5-HT1 serotonin 1A receptors, and the latter indicated the degree of activation of the G protein signaling pathway downstream of the serotonin 1A receptors.

[7] = target: T2, 5-hydroxytryptamine 1A (5-HT1A) receptors; test: 5-HT1A receptor radioligand competition binding assay ([3H]-LSD); details: 293T membranes, read-out: Affinity Ki
Method: The affinity of the compounds of the present disclosure for 5-hydroxytryptamine 1A (5-HT1A) receptors was determined by a radioligand competition binding assay.
In the first step, a cell membrane component containing specific 5-HT1A receptors was prepared. […] A vacuum pump was used to suck off the culture medium, 3 mL of lysis buffer was added to each culture dish, and the cells were placed in a 4° C. cold room for 10 minutes. After the cells were detached, the cells were transferred to a 15 mL centrifuge tube and centrifuged at 1500 rpm for 5 minutes at 4° C., and the supernatant was discarded. The cell pellet was transferred to a tissue homogenizer, and 3 mL of lysis buffer was added and fully ground until the cells were broken. Then, cell suspension was equally aliquoted into several EP tubes, centrifuged at 12000 rpm for 5 minutes at 4° C., and the supernatant was discarded. The precipitate was the cell membrane component containing the 5-HT1A receptors.
First, a standard binding buffer was added to the cell membrane component containing the 5-HT1A receptors, and the cell membrane was disrupted and resuspended with an electric tissue homogenizer. 30 μL of membrane protein suspension was added to each well of a 96-well plate. Then, 30 μL of different drugs were added to the 96-well plate sequentially from bottom to top to ensure that the final drug concentrations were 10^−5 M, 10^−6 M, 10^−7 M, 10^−8 M, 10^−9 M, and 0 M, with two replicates per treatment. Next, 30 μL of [^3H]-LSD was added to each well of the 96-well plate. The plate was incubated at room temperature in the dark for 2 hours. Detection was conducted. The machine readout value reflected the amount of [^3H]-LSD bound on the membrane, and after further data processing, the binding affinity Ki values of different compounds for the 5-HT1A receptors were obtained.

[8] = [3H]-ketanserin, 293T membranes

T1 sequence (P14416 whole entry): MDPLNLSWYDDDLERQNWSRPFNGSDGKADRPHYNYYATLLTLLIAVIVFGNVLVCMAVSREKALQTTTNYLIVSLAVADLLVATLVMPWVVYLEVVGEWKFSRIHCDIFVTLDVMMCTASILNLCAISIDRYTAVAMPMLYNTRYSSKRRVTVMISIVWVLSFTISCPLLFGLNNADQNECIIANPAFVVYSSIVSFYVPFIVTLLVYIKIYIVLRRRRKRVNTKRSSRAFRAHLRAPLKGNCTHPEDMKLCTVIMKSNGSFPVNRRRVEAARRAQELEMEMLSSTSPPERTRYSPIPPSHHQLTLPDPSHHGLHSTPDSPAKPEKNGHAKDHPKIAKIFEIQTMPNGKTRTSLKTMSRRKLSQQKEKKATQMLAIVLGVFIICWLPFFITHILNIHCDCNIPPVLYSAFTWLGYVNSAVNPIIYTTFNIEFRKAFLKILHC
T2 sequence (P08908 whole entry): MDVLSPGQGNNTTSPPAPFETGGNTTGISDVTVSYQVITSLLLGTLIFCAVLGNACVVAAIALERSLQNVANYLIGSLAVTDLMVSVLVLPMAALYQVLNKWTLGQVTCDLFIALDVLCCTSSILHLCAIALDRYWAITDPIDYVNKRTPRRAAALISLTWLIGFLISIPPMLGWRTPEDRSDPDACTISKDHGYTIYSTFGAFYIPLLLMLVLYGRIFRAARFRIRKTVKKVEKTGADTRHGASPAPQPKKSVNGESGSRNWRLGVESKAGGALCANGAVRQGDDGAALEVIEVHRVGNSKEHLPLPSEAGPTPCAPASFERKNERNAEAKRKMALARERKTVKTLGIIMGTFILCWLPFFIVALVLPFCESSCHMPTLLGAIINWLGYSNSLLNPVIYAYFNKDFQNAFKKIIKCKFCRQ
Chain of 5-HT2A receptors (P28223 whole entry): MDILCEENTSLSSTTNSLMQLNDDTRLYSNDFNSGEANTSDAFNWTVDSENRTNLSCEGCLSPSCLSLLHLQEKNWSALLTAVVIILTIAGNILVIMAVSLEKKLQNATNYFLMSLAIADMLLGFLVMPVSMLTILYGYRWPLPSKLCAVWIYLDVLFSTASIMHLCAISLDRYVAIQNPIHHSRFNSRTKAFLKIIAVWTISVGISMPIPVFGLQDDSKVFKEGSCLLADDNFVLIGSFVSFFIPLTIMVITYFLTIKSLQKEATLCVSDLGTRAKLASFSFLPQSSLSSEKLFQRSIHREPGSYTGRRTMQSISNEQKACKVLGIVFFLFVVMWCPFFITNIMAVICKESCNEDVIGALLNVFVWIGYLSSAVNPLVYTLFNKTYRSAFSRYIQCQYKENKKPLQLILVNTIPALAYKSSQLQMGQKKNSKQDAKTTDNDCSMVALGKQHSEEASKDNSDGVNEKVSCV

Structure (SMILES): COc1cccc2c3c(oc12)CN(CCCCOc1ccc2c(c1)NC(=O)CC2)CC3 [I-A2, 7-(4-(8-methoxy-3,4-dihydrobenzofuro[2,3-c]pyridin-2(1H)-yl)butoxy)-3,4-dihydroquinolin-2(1H)-one]
- affinity for 5-HT2A receptors (in words) (5-HT2A receptors): very weak affinity
- pKi ± SEM (5-HT2A receptors; [8]): (5.95 ± 0.05)
- Ki (5-HT2A receptors; [8]): 1110 nM
- Distance travelled in 45 minutes ([1]; MK801 0.2 mg/kg + compound 1 mg/kg i.p.): 8795.03 cm
- Distance travelled in 45 minutes ([1]; MK801 0.2 mg/kg + compound 4 mg/kg i.p.): 6152.62 cm
- Distance travelled in 45 minutes ([1]; MK801 0.2 mg/kg + compound 16 mg/kg i.p.): 3028.99 cm

Structure (SMILES): CCOc1cccc2c3c(oc12)CN(CCCCOc1ccc2ccc(=O)[nH]c2n1)CC3 [I-A29, 7-(4-(8-ethoxy-3,4-dihydrobenzofuro[2,3-c]pyridin-2(1H)-yl)butoxy)-1,8-naphthyridin-2(1H)-one]
- Ki (dopamine D2 receptors [2]): 27.7 nM
- Emax (dopamine D2 receptors [3]): 40%
- EC50 (dopamine D2 receptors [3]): 33.1 nM
- Emax (dopamine D2 receptors [4]): 47%
- EC50 (dopamine D2 receptors [4]): 10.1 nM
- Emax [5]: 90.3%
- Emax [6]: 8.46%
- affinity for 5-HT2A receptors (in words) (5-HT2A receptors): very weak affinity
- Ki (5-HT2A receptors; [8]): 5520 nM

Structure (SMILES): COc1cccc2c1cc1n2CCN(CCNC(=O)C2CCOCC2)C1 [I-C8, N-(2-(9-methoxy-3,4-dihydropyrazino[1,2-a]indol-2(1H)-yl)ethyl)tetrahydro-2H-pyran-4-carboxamide]
- Ki (dopamine D2 receptors [2]): 239 nM
- Emax [5]: 81%
- Emax [6]: 79%

Structure (SMILES): CCOc1cccc2c3c(oc12)CN(CCNC(=O)C1CCCC1)CC3 [I-A33, N-(2-(8-ethoxy-3,4-dihydrobenzofuro[2,3-c]pyridin-2(1H)-yl)ethyl)cyclopentanecarboxamide]
- Emax (dopamine D2 receptors [4]): 18%
- EC50 (dopamine D2 receptors [4]): 56.7 nM
- Emax [5]: 96.7%
- Emax [6]: 25.2%

Structure (SMILES): CCOc1cccc2c3c(oc12)CN(CCc1ccc2ccc(=O)[nH]c2c1)CC3 [I-A27, 7-(2-(8-ethoxy-3,4-dihydrobenzofuro[2,3-c]pyridin-2(1H)-yl)ethyl)quinolin-2(1H)-one]
- Emax (dopamine D2 receptors [3]): 57%
- EC50 (dopamine D2 receptors [3]): 45.2 nM
- Emax (dopamine D2 receptors [4]): 101%
- EC50 (dopamine D2 receptors [4]): 55 nM
- Ki [7]: 0.64 nM
- Emax [5]: 64.1%

Structure (SMILES): CCOc1cccc2c3c(oc12)CN(CCNC(=O)c1ccccc1)CC3 [I-A35, N-(2-(8-ethoxy-3,4-dihydrobenzofuro[2,3-c]pyridin-2(1H)-yl)ethyl)benzamide]
- Emax (dopamine D2 receptors [4]): 17%
- EC50 (dopamine D2 receptors [4]): 3.17 nM
- Emax [5]: 102%
- Emax [6]: 39.8%

Structure (SMILES): CCOc1cccc2c3c(oc12)CN(CCN1CCCc2c(cnn2C)C1=O)CC3 [I-A42, 5-(2-(8-ethoxy-3,4-dihydrobenzofuro[2,3-c]pyridin-2(1H)-yl)ethyl)-1-methyl-5,6,7,8-tetrahydropyrazolo[4,3-c]azepin-4(1H)-one]
- Ki [7]: 0.42 nM
- Emax [5]: 101%
- Emax [6]: 21%

Structure (SMILES): CCOc1cccc2c3c(oc12)CN(CCNC(=O)c1cccs1)CC3 [I-A36, N-(2-(8-ethoxy-3,4-dihydrobenzofuro[2,3-c]pyridin-2(1H)-yl)ethyl)thiophene-2-carboxamide]
- Emax (dopamine D2 receptors [4]): 12%
- EC50 (dopamine D2 receptors [4]): 0.75 nM
- Emax [5]: 100%
- Emax [6]: 38.7%

Structure (SMILES): CN(C)C(=O)N[C@H]1CC[C@H](CCN2CCN(c3cccc(Cl)c3Cl)CC2)CC1 [Cariprazine, reference compound]
- β-arrestin2 BRET EC50 [6]: Inactive

Structure (SMILES): CCOc1cccc2c3c(oc12)CN(CCN1CCCc2c(ccn2C)C1=O)CC3 [I-A41, 5-(2-(8-ethoxy-3,4-dihydrobenzofuro[2,3-c]pyridin-2(1H)-yl)ethyl)-1-methyl-5,6,7,8-tetrahydropyrrolo[3,2-c]azepin-4(1H)-one]
- Ki [7]: 0.78 nM
- Emax [5]: 98.8%
- Emax [6]: 14.3%

Structure (SMILES): CCOc1cccc2c3c(oc12)CN(CCCCn1ncc(=O)n(C)c1=O)CC3 [I-A43, 2-(4-(8-ethoxy-3,4-dihydrobenzofuro[2,3-c]pyridin-2(1H)-yl)butyl)-4-methyl-1,2,4-triazine-3,5(2H,4H)-dione]
- Emax (dopamine D2 receptors [4]): 21%
- EC50 (dopamine D2 receptors [4]): 48.8 nM
- Ki [7]: 0.015 nM
- Emax [5]: 84.3%

Structure (SMILES): CCOc1cccc2c3c(oc12)CN(CCN1CCCc2ccccc2C1=O)CC3 [I-A40, 2-(2-(8-ethoxy-3,4-dihydrobenzofuro[2,3-c]pyridin-2(1H)-yl)ethyl)-2,3,4,5-tetrahydro-1H-benzo[c]azepin-1-one]
- Emax [5]: 101%
- Emax [6]: 28.9%

Structure (SMILES): CCOc1cccc2c3c(oc12)CN(CCN1CCc2nn(C)c(C)c2C1=O)CC3 [I-A39, 5-(2-(8-ethoxy-3,4-dihydrobenzofuro[2,3-c]pyridin-2(1H)-yl)ethyl)-2,3-dimethyl-2,5,6,7-tetrahydro-4H-pyrazolo[4,3-c]pyridin-4-one]
- Emax [5]: 82.2%
- Emax [6]: 20.6%
